Results: the NIST ThermoML archive (doi:10.1021/je900874z)

Columns and labels:
[1] = xn = mol fraction of the nth substance listed; conditions: 101 kPa, Liquid
[2] = 101.33 kPa, Liquid; for speed of sound: Pulse-echo method

c1ccncc1 [pyridine] + CC(C)=O
[1]
Conditions	mass density [kg/m3]
293.15 K, x2 = 0.0577	973.393
293.15 K, x2 = 0.1007	966.028
293.15 K, x2 = 0.1536	956.946
293.15 K, x2 = 0.2043	948.163
293.15 K, x2 = 0.2219	945.011
293.15 K, x2 = 0.2968	931.713
293.15 K, x2 = 0.3537	921.354
293.15 K, x2 = 0.4051	911.899
293.15 K, x2 = 0.5191	890.383
293.15 K, x2 = 0.5519	884.082
293.15 K, x2 = 0.5969	875.296
293.15 K, x2 = 0.6425	866.297
293.15 K, x2 = 0.703	854.168
293.15 K, x2 = 0.7504	844.514
293.15 K, x2 = 0.8066	832.904
293.15 K, x2 = 0.8569	822.218
293.15 K, x2 = 0.9019	812.518
293.15 K, x2 = 0.9456	803.006
298.15 K, x2 = 0.0514	969.365
298.15 K, x2 = 0.0969	961.623
298.15 K, x2 = 0.1486	952.705
298.15 K, x2 = 0.2023	943.375
298.15 K, x2 = 0.2444	935.93
298.15 K, x2 = 0.296	926.692
298.15 K, x2 = 0.3544	916.021
298.15 K, x2 = 0.3965	908.33
298.15 K, x2 = 0.4516	898.006
298.15 K, x2 = 0.5036	888.119
298.15 K, x2 = 0.594	870.616
298.15 K, x2 = 0.6454	860.492
298.15 K, x2 = 0.6971	850.007
298.15 K, x2 = 0.7518	838.783
298.15 K, x2 = 0.8049	827.707
298.15 K, x2 = 0.8456	819.096
298.15 K, x2 = 0.8955	808.385
298.15 K, x2 = 0.9456	797.415
303.15 K, x2 = 0.0493	964.637
303.15 K, x2 = 0.0954	956.714
303.15 K, x2 = 0.1463	947.874
303.15 K, x2 = 0.1983	938.736
303.15 K, x2 = 0.2424	930.863
303.15 K, x2 = 0.2929	921.779
303.15 K, x2 = 0.3522	910.875
303.15 K, x2 = 0.4048	901.126
303.15 K, x2 = 0.4497	892.629
303.15 K, x2 = 0.497	883.593
303.15 K, x2 = 0.5412	875.069
303.15 K, x2 = 0.5965	864.243
303.15 K, x2 = 0.6594	851.677
303.15 K, x2 = 0.6912	845.142
303.15 K, x2 = 0.7491	833.115
303.15 K, x2 = 0.8475	812.305
303.15 K, x2 = 0.8946	802.071
303.15 K, x2 = 0.9443	791.125

CNc1ccccc1 [N-methylaniline]
[2]
Conditions	mass density [kg/m3]	speed of sound [m/s]
293.15 K	986.077	1582.3
298.15 K	982.066	1564.4
303.15 K	978.011	1545.5

Nc1ccccc1 [aniline]
[2]
Conditions	mass density [kg/m3]	speed of sound [m/s]
293.15 K	1021.7	1657
298.15 K	1017.41	1638.6
303.15 K	1013.04	1619.2

CC(C)=O [acetone]
[2]
Conditions	mass density [kg/m3]	speed of sound [m/s]
293.15 K	790.694	1182.8
298.15 K	785.32	1160.7
303.15 K	778.812	1138.7

Nc1ccccc1 [aniline] + CC(C)=O
[1]
Conditions	mass density [kg/m3]
293.15 K, x2 = 0.0522	1013.71
293.15 K, x2 = 0.1078	1004.97
293.15 K, x2 = 0.1567	996.941
293.15 K, x2 = 0.2074	988.429
293.15 K, x2 = 0.249	981.269
293.15 K, x2 = 0.3016	971.707
293.15 K, x2 = 0.3454	963.326
293.15 K, x2 = 0.3832	955.799
293.15 K, x2 = 0.4313	946.013
293.15 K, x2 = 0.4908	933.416
293.15 K, x2 = 0.5497	920.272
293.15 K, x2 = 0.583	912.529
293.15 K, x2 = 0.6446	897.535
293.15 K, x2 = 0.6911	885.684
293.15 K, x2 = 0.7465	870.629
293.15 K, x2 = 0.8046	854.022
293.15 K, x2 = 0.8497	840.545
293.15 K, x2 = 0.9045	823.238
293.15 K, x2 = 0.9475	809.118
298.15 K, x2 = 0.0569	1008.67
298.15 K, x2 = 0.1088	1000.44
298.15 K, x2 = 0.1539	993.118
298.15 K, x2 = 0.1978	985.694
298.15 K, x2 = 0.2484	976.895
298.15 K, x2 = 0.3039	966.77
298.15 K, x2 = 0.3505	957.976
298.15 K, x2 = 0.4114	945.773
298.15 K, x2 = 0.4585	935.933
298.15 K, x2 = 0.5035	926.122
298.15 K, x2 = 0.5501	915.531
298.15 K, x2 = 0.5922	905.703
298.15 K, x2 = 0.6499	891.425
298.15 K, x2 = 0.6993	878.643
298.15 K, x2 = 0.7522	864.125
298.15 K, x2 = 0.8082	848.052
298.15 K, x2 = 0.8533	834.272
298.15 K, x2 = 0.8951	821.048
298.15 K, x2 = 0.9545	801.258
303.15 K, x2 = 0.0515	1005.02
303.15 K, x2 = 0.1002	997.272
303.15 K, x2 = 0.1475	989.506
303.15 K, x2 = 0.1926	981.799
303.15 K, x2 = 0.2399	973.527
303.15 K, x2 = 0.3024	962.003
303.15 K, x2 = 0.3475	953.088
303.15 K, x2 = 0.3947	943.989
303.15 K, x2 = 0.4503	932.55
303.15 K, x2 = 0.4979	922.075
303.15 K, x2 = 0.5502	910.191
303.15 K, x2 = 0.6037	897.422
303.15 K, x2 = 0.6464	886.697
303.15 K, x2 = 0.6975	873.362
303.15 K, x2 = 0.7548	857.721
303.15 K, x2 = 0.8078	842.147
303.15 K, x2 = 0.8567	827.148
303.15 K, x2 = 0.9014	812.779
303.15 K, x2 = 0.9494	796.575

c1ccncc1 [pyridine]
[2]
Conditions	mass density [kg/m3]	speed of sound [m/s]
293.15 K	983.053	1436.7
298.15 K	978.05	1416.7
303.15 K	972.98	1396.6

CNc1ccccc1 [N-methylaniline] + CC(C)=O
[1]
Conditions	mass density [kg/m3]
293.15 K, x2 = 0.0565	979.562
293.15 K, x2 = 0.1032	973.934
293.15 K, x2 = 0.1494	968.145
293.15 K, x2 = 0.1916	962.605
293.15 K, x2 = 0.251	954.413
293.15 K, x2 = 0.2952	948.053
293.15 K, x2 = 0.3555	938.912
293.15 K, x2 = 0.4039	931.04
293.15 K, x2 = 0.4478	923.576
293.15 K, x2 = 0.4981	914.659
293.15 K, x2 = 0.5489	905.091
293.15 K, x2 = 0.5965	895.722
293.15 K, x2 = 0.6485	884.852
293.15 K, x2 = 0.7018	873.046
293.15 K, x2 = 0.7472	862.27
293.15 K, x2 = 0.802	848.69
293.15 K, x2 = 0.8563	834.277
293.15 K, x2 = 0.9053	820.343
293.15 K, x2 = 0.9548	805.391
298.15 K, x2 = 0.044	977.005
298.15 K, x2 = 0.0984	970.455
298.15 K, x2 = 0.1447	964.607
298.15 K, x2 = 0.1996	957.353
298.15 K, x2 = 0.2503	950.29
298.15 K, x2 = 0.2919	944.327
298.15 K, x2 = 0.3511	935.283
298.15 K, x2 = 0.3924	928.532
298.15 K, x2 = 0.452	918.415
298.15 K, x2 = 0.4948	910.794
298.15 K, x2 = 0.5563	899.086
298.15 K, x2 = 0.6004	890.231
298.15 K, x2 = 0.6473	880.387
298.15 K, x2 = 0.6962	869.434
298.15 K, x2 = 0.7506	856.501
298.15 K, x2 = 0.8009	843.758
298.15 K, x2 = 0.8518	830.205
298.15 K, x2 = 0.8986	816.915
298.15 K, x2 = 0.9488	801.799
303.15 K, x2 = 0.0461	972.638
303.15 K, x2 = 0.0934	966.889
303.15 K, x2 = 0.1524	959.343
303.15 K, x2 = 0.1937	953.815
303.15 K, x2 = 0.2442	946.596
303.15 K, x2 = 0.3357	933.026
303.15 K, x2 = 0.3991	922.737
303.15 K, x2 = 0.4904	906.677
303.15 K, x2 = 0.5507	895.228
303.15 K, x2 = 0.5949	886.274
303.15 K, x2 = 0.6467	875.21
303.15 K, x2 = 0.6928	864.807
303.15 K, x2 = 0.7424	852.961
303.15 K, x2 = 0.7993	838.524
303.15 K, x2 = 0.8469	825.646
303.15 K, x2 = 0.8977	811.117
303.15 K, x2 = 0.9484	795.598
